Test results as given in ChEMBL document CHEMBL1201862, “PubChem BioAssay data set” (2004).
Values belong to the molecule of their own block, whether it stands above or below them. Calls of active or inactive are those of the source.

What was measured:
[1] = molecular target: T1, Short transient receptor potential channel 4 (Mus musculus, UniProt Q9QUQ5); experiment: block of DAMGO-driven TRPC4 calcium entry – cell-based, HEK293 TRPC4/mu-opioid, Fluo-4 calcium, dose response (AID 434942); format: functional;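 further: potency of inhibitors blocking the TRPC4 calcium response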
T1 sequence (Q9QUQ5 whole entry): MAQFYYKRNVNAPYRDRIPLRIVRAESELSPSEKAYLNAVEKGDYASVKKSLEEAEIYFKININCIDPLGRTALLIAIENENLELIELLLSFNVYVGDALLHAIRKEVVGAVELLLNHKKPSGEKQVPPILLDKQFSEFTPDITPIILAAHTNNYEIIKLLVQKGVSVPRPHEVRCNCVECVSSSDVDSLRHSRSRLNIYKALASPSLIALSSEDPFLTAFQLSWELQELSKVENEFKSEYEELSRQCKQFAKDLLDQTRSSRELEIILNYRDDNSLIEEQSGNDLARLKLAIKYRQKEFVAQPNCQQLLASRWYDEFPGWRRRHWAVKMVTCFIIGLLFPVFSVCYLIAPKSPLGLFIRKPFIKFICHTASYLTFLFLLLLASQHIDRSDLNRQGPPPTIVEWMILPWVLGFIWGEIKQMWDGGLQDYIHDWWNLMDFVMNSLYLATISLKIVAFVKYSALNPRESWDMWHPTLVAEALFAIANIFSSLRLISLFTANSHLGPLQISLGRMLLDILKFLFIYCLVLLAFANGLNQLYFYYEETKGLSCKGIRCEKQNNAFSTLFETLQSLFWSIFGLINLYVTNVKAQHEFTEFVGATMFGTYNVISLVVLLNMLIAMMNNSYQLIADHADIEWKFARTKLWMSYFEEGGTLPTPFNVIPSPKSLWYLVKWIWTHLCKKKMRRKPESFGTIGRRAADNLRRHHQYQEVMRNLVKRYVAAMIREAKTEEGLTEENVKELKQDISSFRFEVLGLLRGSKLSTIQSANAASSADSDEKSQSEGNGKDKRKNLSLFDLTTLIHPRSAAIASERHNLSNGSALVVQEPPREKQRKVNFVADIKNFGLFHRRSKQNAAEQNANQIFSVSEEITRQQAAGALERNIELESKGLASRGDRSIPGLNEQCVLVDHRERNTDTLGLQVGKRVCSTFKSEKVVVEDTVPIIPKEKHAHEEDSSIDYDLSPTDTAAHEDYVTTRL

[2] = molecular target: Dual specificity tyrosine-phosphorylation-regulated kinase 1A (Rattus norvegicus, UniProt Q63470); format: biochemical, Homo sapiens
[3] = molecular target: T2, Ubiquitin-conjugating enzyme E2 N (Homo sapiens, UniProt P61088); format: functional;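 further: Dose-response confirmation in a TR-FRET assay detecting UBC13-driven polyubiquitin chain formation, inhibition measured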
T2 sequence (P61088 whole entry): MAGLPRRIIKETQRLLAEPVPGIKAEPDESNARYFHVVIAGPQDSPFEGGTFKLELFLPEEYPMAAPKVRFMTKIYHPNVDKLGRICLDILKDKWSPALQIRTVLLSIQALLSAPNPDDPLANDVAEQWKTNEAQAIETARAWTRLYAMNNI

[4] = viability of uninfected HEp-2 cells – cell-based, HTS, cytotoxicity control for RSV inhibitor project, dose response (AID 2410); format: functional; settings: human respiratory syncytial virus
Fatty acid synthase [5] = molecular target: T3, Fatty acid synthase (Homo sapiens, UniProt P49327); experiment: inhibition of human FAS-TE enzyme activity – biochemical, endpoint fluorescence intensity, uHTS hits, dose response (AID 624327); format: functional;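 further: fluorescence from hydrolysis of an O-methyl fluorescein acyl ester substrate by the enzyme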
Fatty acid synthase [6] = molecular target: T3, Fatty acid synthase; experiment: inhibition of human FAS-TE enzyme activity – biochemical, kinetic fluorescence intensity, dose response (AID 624326); format: functional;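 further: rate of fluorescence rise from hydrolysis of a fluorogenic O-methyl fluorescein ester substrate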
[7] = molecular target: Nuclear receptor subfamily 5 group A member 2 (Homo sapiens, UniProt O00482); format: functional, cell-based;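 further: HEK293T cells transfected with LRH-1 and a StAR promoter luciferase reporter; potency for inhibitors that lower LRH-1 driven reporter light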
Steroidogenic factor 1 = Steroidogenic factor 1 (Homo sapiens, UniProt Q13285); experiment: Counterscreen for inverse agonists of the liver receptor homolog-1 (LRH-1; NR5A2): Luminescence-based cell-based high throughput dose response assay to identify inverse agonists of the Steroidogenic Factor 1 Nuclear Receptor (SF1; NR5A1).; format: functional
[8] = nonselective StAR promoter luciferase inhibitors – cell-based, luminescence, luciferase reporter, counter-screen for LRH-1 inverse agonist project, dose response (AID 651969); format: functional
[9] = Luminescence Cell-Based Dose Retest to Confirm Inhibitors of Cancer Stem Cells. [Related pubchem assays (depositor defined):AID2717, AID2721]; format: functional; settings: Homo sapiens
[10] = intracellular Trypanosoma cruzi inhibitors in host cells – cell-based, plate reader, cherry-pick samples, set 3, dose response (AID 651818); format: functional;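 further: compounds incubated with infected cells for about four days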
[11] = blockers of HIV-1 envelope-mediated cell-cell fusion – cherry-pick, dose response (AID 652057); format: functional, cell-based
[12] = blockers of HIV-1 ZM109 envelope-driven cell-cell fusion – HeLa effector, CEM target cells, luciferase, cherry-pick, dose response (AID 652058); format: functional, cell-based;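 further: luciferase signal from HIV-1 Env mediated cell-cell fusion of effector and target cells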
[13] = molecular target: T4, RNA-binding protein pos-1 (Caenorhabditis elegans, UniProt G5EF15); experiment: disruptors of C. elegans POS-1 RNA interaction – biochemical, fluorescence polarization, dose response (AID 1964);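 further: purified POS-1 fused to maltose binding protein made in E. coli; potency of compounds blocking POS-1 binding to fluorescent RNA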
T4 sequence (G5EF15 whole entry): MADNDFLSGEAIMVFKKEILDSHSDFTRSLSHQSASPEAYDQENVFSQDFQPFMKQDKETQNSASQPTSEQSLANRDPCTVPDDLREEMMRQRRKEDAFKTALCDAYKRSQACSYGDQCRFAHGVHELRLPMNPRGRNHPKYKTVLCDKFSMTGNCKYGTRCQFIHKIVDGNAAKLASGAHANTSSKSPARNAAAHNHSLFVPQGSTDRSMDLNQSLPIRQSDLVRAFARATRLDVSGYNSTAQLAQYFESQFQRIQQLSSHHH

[14] = molecular target: T5, Zinc finger protein mex-5 (Caenorhabditis elegans, UniProt Q9XUB2); experiment: potency of MEX-5 RNA-binding blockers – biochemical, C. elegans, fluorescence polarization, dose response (AID 1960)
T5 sequence (Q9XUB2 whole entry): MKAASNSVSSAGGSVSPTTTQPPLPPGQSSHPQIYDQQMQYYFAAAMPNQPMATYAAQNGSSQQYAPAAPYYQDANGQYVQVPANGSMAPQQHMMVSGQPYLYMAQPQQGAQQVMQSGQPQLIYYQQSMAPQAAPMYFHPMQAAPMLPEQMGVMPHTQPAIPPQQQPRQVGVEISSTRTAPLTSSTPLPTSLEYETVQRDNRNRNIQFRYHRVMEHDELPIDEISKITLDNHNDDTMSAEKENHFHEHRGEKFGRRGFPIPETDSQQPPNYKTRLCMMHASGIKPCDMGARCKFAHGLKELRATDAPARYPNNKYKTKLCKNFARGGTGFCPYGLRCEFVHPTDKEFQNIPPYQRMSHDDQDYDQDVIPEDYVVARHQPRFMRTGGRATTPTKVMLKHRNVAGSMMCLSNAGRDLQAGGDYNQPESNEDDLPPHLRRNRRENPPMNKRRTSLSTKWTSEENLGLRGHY

Large T antigen = Large T antigen (Simian virus 40, UniProt P03070); format: functional, Betapolyomavirus macacae;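 further: Confirmatory-stage PubChem screen for compounds that inhibit SV40 T antigen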
[15] = molecular target: Glucose-6-phosphate 1-dehydrogenase (Homo sapiens, UniProt P11413); experiment: inhibition of Homo sapiens G6PD, dose series – biochemical, fluorescence, selectivity assay for P. falciparum G6PD inhibitor project, dose response (AID 504792); format: functional
Glucose-6-phosphate 1-dehydrogenase, sequence (P11413 whole entry): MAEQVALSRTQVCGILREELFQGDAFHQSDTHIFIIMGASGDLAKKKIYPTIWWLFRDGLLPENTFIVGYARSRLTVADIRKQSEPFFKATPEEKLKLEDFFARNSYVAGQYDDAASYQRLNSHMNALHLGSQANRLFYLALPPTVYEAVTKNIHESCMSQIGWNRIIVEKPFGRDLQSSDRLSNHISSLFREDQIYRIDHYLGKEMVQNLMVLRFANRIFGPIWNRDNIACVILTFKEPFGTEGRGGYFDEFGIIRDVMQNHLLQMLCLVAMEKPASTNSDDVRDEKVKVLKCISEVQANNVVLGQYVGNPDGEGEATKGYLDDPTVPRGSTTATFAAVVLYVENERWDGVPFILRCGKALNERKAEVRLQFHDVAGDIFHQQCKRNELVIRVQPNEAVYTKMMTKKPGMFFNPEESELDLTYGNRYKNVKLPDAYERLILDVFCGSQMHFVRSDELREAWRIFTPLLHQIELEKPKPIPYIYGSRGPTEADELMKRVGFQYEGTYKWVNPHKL

Steroidogenic factor 1, sequence (Q13285 whole entry): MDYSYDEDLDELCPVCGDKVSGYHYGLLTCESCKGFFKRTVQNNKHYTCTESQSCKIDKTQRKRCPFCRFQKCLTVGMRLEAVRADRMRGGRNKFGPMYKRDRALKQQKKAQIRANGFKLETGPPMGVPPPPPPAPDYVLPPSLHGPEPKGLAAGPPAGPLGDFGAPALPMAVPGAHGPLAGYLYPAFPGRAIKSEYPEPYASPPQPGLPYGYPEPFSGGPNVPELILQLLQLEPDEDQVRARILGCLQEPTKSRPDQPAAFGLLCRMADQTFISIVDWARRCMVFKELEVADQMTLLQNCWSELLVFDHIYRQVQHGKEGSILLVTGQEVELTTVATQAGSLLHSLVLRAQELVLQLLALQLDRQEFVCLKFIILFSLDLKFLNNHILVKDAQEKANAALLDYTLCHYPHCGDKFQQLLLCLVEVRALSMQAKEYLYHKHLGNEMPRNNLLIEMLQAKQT
Nuclear receptor subfamily 5 group A member 2, sequence (O00482 whole entry): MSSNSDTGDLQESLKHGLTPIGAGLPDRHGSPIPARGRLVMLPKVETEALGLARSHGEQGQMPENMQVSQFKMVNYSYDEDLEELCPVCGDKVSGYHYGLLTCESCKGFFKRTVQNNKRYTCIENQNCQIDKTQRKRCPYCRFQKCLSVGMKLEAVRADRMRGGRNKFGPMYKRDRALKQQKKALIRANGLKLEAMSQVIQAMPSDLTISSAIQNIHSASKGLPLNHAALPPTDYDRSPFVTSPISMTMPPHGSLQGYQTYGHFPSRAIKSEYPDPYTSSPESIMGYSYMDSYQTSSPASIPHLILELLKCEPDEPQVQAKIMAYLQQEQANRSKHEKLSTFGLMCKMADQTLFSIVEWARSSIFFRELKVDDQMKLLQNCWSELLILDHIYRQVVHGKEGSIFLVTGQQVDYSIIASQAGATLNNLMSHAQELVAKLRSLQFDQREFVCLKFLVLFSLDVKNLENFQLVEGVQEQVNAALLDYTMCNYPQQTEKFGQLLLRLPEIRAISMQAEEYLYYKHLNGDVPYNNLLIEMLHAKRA
T3 sequence (P49327 whole entry): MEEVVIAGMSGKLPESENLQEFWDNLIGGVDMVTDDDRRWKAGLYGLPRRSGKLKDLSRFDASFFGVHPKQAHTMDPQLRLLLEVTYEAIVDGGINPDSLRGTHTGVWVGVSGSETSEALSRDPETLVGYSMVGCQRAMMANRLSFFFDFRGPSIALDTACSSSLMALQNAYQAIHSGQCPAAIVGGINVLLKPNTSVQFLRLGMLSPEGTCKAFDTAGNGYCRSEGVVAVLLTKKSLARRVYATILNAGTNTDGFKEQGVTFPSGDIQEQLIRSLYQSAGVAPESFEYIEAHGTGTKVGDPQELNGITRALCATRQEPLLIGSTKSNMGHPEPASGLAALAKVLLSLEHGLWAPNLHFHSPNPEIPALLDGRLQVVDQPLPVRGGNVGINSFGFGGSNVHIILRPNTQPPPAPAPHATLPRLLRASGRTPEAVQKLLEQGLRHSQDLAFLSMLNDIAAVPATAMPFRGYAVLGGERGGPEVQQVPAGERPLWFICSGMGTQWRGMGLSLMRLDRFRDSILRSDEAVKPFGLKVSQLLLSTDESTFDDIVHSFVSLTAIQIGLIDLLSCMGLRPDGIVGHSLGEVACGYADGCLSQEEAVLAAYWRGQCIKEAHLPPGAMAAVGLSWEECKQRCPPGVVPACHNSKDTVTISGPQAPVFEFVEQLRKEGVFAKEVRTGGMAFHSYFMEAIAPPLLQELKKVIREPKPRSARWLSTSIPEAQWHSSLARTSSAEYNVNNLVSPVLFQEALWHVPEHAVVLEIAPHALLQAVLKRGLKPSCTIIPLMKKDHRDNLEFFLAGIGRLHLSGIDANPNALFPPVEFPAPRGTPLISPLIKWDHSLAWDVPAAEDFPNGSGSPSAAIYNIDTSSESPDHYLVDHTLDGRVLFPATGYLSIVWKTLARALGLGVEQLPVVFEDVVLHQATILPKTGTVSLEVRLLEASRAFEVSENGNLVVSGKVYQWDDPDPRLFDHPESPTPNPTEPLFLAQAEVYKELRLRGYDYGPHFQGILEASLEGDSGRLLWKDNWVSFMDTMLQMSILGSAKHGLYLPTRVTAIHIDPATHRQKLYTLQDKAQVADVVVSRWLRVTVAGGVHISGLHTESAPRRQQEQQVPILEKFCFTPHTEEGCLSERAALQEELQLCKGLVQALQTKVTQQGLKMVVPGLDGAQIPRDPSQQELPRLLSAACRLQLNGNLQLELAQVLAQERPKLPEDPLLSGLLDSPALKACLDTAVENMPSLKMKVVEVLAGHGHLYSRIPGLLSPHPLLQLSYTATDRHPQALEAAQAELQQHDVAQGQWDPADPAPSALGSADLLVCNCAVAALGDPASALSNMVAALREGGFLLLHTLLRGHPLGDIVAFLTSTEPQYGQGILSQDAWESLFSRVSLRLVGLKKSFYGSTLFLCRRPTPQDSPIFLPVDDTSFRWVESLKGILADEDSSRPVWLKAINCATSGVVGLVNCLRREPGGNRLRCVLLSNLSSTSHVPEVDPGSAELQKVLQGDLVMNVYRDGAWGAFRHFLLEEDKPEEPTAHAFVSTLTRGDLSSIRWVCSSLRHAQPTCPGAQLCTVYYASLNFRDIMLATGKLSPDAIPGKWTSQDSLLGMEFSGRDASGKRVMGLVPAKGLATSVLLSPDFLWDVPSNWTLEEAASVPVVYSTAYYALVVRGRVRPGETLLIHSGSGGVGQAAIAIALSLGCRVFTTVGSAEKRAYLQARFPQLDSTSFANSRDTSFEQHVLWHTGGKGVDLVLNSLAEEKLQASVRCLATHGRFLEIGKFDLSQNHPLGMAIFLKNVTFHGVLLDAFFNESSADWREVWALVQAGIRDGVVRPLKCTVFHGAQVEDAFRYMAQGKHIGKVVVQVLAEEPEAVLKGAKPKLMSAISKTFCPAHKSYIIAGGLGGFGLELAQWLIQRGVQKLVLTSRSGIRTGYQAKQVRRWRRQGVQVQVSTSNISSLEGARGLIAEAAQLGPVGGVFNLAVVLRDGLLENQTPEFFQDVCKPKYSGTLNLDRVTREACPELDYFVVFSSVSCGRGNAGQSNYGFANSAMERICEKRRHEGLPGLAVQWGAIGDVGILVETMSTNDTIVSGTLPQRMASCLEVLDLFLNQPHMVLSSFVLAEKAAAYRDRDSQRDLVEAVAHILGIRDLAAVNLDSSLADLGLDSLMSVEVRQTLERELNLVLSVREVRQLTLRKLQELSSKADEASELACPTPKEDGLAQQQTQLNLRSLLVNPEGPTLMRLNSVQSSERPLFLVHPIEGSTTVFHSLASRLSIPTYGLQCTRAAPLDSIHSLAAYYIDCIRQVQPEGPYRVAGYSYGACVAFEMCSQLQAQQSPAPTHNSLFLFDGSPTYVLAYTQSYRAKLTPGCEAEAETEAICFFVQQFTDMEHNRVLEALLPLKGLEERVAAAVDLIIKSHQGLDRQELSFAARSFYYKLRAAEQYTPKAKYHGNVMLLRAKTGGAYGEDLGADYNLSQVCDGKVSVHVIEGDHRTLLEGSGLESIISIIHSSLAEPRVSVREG
Large T antigen, sequence (P03070 whole entry): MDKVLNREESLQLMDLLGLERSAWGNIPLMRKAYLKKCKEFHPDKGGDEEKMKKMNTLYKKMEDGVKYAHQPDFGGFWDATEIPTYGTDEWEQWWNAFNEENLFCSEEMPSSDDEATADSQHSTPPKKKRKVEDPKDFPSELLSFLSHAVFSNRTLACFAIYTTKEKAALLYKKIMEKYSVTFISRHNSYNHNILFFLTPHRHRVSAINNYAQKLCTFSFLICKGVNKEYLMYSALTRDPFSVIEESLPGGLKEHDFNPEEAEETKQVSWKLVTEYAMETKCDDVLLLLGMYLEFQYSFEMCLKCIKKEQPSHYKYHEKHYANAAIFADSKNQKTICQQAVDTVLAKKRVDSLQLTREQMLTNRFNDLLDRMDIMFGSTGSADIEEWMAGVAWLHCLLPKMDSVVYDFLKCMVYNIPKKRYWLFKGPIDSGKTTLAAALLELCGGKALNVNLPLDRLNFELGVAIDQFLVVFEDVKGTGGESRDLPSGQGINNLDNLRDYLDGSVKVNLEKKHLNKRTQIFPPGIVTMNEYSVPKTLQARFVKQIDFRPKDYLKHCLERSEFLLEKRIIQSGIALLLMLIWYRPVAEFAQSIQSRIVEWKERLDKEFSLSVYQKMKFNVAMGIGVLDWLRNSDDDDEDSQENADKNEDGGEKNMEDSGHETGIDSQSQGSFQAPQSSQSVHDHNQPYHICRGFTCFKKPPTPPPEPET

EC50 [1]: 7.5 µM (active)
Compound: Cc1ccn2cc(CCNC(=O)c3ccc(Br)o3)nc2c1

AC50 [2]: 0.905 µM (active)
Compound: NNc1nc2c(Cl)ccc(Cl)c2s1

IC50 [3]: > 20 µM (inactive)
Compound: COc1ccc2[nH]c(SCc3nc(N)nc(Nc4ccccc4)n3)nc2c1

IC50 (Fatty acid synthase [5]): 1.26 µM (active)
IC50 (Fatty acid synthase [6]): 1.17 µM (active)
Compound: O=C(CCn1c(=O)c2ccccc2n(Cc2cccc([N+](=O)[O-])c2)c1=O)N1CCc2ccccc2C1
CC50 [4]: > 50 µM (active)

Compound: CCOc1ccc(OCCN2C(=O)NC(Cc3c[nH]c4ccccc34)C2=O)cc1 (centres undefined)
IC50 [7]: 4.18 µM (active)
IC50 (Steroidogenic factor 1): 5.29 µM (active)
IC50 [8]: 35.9 µM (inactive)

Compound: CC(=O)O[C@H]1[C@@H](O)[C@H](O)[C@H](Oc2c(O)c(C)c3c4c2[C@@H](C)CC[C@@H]4[C@@H](C)C[C@H]3C=C(C)C)O[C@H]1C
AC50 [9]: 3.19 µM (active)
IC50 [3]: > 20 µM (inactive)

Compound: COc1ccc(CCn2c(C)cc(C(=O)COC(=O)c3ccc(O)cc3O)c2C)cc1
IC50 [7]: 35.9 µM (inactive)
IC50 (Steroidogenic factor 1): 5.82 µM (active)
IC50 [8]: 35.9 µM (inactive)

Compound: COc1ccc(CCNC(=O)COC(=O)c2cc(Cl)nc(Cl)c2)cc1
IC50 [7]: 8.32 µM (active)
IC50 (Steroidogenic factor 1): 3.23 µM (active)
IC50 [8]: 35.9 µM (inactive)

Compound: Cc1ccc(NC(=O)CSc2nc3nc(O)cc(O)c3s2)c(Br)c1
IC50 [7]: 35.9 µM (inactive)
IC50 (Steroidogenic factor 1): 9.35 µM (active)
IC50 [8]: 35.9 µM (inactive)

Compound: CC(=O)Nc1cc(-c2ccc(S(C)(=O)=O)cc2)cn2c(-c3ccc(F)cc3)cnc12
IC50 [7]: 8.24 µM (active)
IC50 (Steroidogenic factor 1): 3.11 µM (active)
IC50 [8]: 23.7 µM (inactive)

Compound: C[C@H](CO)N1C[C@H](C)[C@@H](CN(C)Cc2ccc(C(F)(F)F)cc2)Oc2c(NC(=O)c3nc4ccccc4s3)cccc2C1=O
AC50 [10]: 1.05 µM (active)

Compound: Cc1ccc(S(=O)(=O)Nc2cccc3c2O[C@H](CN(C)Cc2ccc(C(=O)Nc4ccccc4N)cc2)[C@H](C)CN([C@H](C)CO)C3=O)cc1
AC50 [10]: 2.26 µM (active)

Compound: C[C@@H]1CCCCO[C@@H](CN(C)Cc2ccc(C(F)(F)F)cc2)[C@@H](C)CN([C@H](C)CO)C(=O)c2cc(NS(=O)(=O)c3ccc(Cl)cc3)ccc2O1
AC50 [10]: 3.01 µM (active)

Compound: C[C@H]1CN([C@@H](C)CO)C(=O)c2cccc(NS(=O)(=O)c3ccccc3)c2O[C@H]1CN(C)Cc1ccc(C(=O)Nc2ccccc2N)cc1
AC50 [10]: 3.48 µM (active)

Compound: C[C@@H]1CN([C@H](C)CO)C(=O)Cc2cc(NC(=O)Nc3ccc(C(F)(F)F)cc3)ccc2O[C@H]1CN(C)Cc1ccccc1
AC50 [10]: 4.06 µM (active)

Compound: C[C@@H]1CN([C@@H](C)CO)S(=O)(=O)c2ccc(C3=CCCC3)cc2O[C@@H]1CN(C)C(=O)C1CCOCC1
AC50 [11]: 59 µM (active)
AC50 [12]: 10.2 µM (active)

EC50 [13]: 24 µM (active)
EC50 [14]: 6.35 µM (active)
IC50 (Large T antigen): 13.8 µM (active)
IC50 [15]: > 80 µM (inactive)
Compound: O=C(CCc1ccc(O)c(O)c1)N/N=C/c1cc2c(cc1[N+](=O)[O-])OCO2
